Data as given in ChEMBL document CHEMBL1128685, “Novel and potent adenosine 3',5'-cyclic phosphate phosphodiesterase III inhibitors: thiazolo[4,5-b][1,6]naphthyridin-2-ones” (J Med Chem, 1995).

Each molecule was assayed against Phosphodiesterase 3 (Homo sapiens, UniProt Q14432+Q13370) (assay: Inhibition of cAMP PDE 3).
Assay type: protein assay

Which IC50 does the source give for `CC(C)Cc1nccc2nc3nc(O)sc3cc12` here?
Its IC50 is 0.33 µM.

`CCCc1nccc2nc3nc(O)sc3cc12` was tested. Which IC50 did it give?
Its IC50 is 0.067 µM.

`Oc1nc2nc3ccnc(-c4ccccc4)c3cc2s1` was tested. Which IC50 did it give?
The IC50 was 0.43 µM.

With `CCc1nccc2nc3nc(O)sc3cc12` as the molecule, how does the IC50 read?
The IC50 was 0.022 µM.

Which IC50 does the source give for `Oc1ccc(-c2nccc3nc4nc(O)sc4cc23)cc1` here?
The IC50 was 0.24 µM.

How did the IC50 turn out when `Cc1nccc2nc3nc(O)sc3cc12` was run?
Its IC50 is 0.062 µM.

With `O=[N+]([O-])c1cc(-c2nccc3nc4nc(O)sc4cc23)ccc1O` as the molecule, how does the IC50 read?
Its IC50 is 0.083 µM.
